Measured values from patent US9738848B2, “Polyfunctional lubricant composition” (priority 2013, dated 2017).

Experiments:
[1] = Hydrolyzability test (acid value after storage with water); type: physicochemical; conditions: 1 mass percent water, 60° C.
Procedure: 1 Mass percent of water was added to phosphorus compounds and the mixture was stored in a thermostat at 60° C. The compounds were evaluated for hydrolyzability by measuring an acid value at each number of days elapsed.

[2] = system: Larval medaka (Oryzias latipes); conditions: cited from earlier work
[3] = system: Rainbow trout; conditions: cited from earlier work

Compound | Hydrolyzability (acid value over days elapsed) [1] | Larval medaka (Oryzias latipes) acute toxicity 96h-LC50 [2] [µg/mL] | Rainbow trout acute toxicity 96h-LC50 [3] [µg/mL]
O=P(Oc1ccccc1)(Oc1ccccc1)Oc1ccccc1 [Triphenyl phosphate] | high hydrolyzability | 1.3 | –
Tricresyl phosphate | – | 0.84 | –
Triisopropyl phenyl phosphate | – | >100 | 1.6
